Consider 23 compounds from US5686486A, “4-hydroxy-benzopyran-2-ones and 4-hydroxy-cycloalkyl[b]pyran-2-ones useful to treat retroviral infections” (priority 1995, dated 1997).

pIC50: −log10 of the molar value. Several values for one entry are separate records, joined by “and”; a condition that tells them apart may be missing. Identical values can stand only once. Counter-ions that a name gives are not always drawn. Like-named read-outs stand apart in the source and are kept apart here.

This test deals with HIV-1 protease (Human immunodeficiency virus type 1 group M subtype B, UniProt P04585). The test can be described thus: biochemical. The conditions noted are these: for inhibition at 20 µM: read-out: HIV-1 Protease % Inhib, dose 20.000 uM; for inhibition at 200 µM: read-out: HIV-1 Protease % Inhib, dose 200.000 uM; for pIC50: HIV-1 Protease IC50. The method, then: The HIV protease screening assay is based on fluorescently labeled substrate which can be resolved from nonlabeled cleavage product using special beads coated with streptavidin. The substrate is biotinylated at the amino terminal arginine and fluorescently labeled with fluorescein isothiocynate (FITC) at the carboxyl terminal lysine. This assay has been employed to detect novel, nonpeptidic inhibitors of HIV-1 protease. Substrate (20 μl of 0.2 μM), sample (10 μl of desired concentration), and enzyme (10 μl of 0.1 μM) are added to a 96 well pandex plate. The assay is run in 0.1M sodium acetate buffer at pH 5.5 in the presence of 1.0M sodium chloride and 0.05% NP-40 with incubated in the dark for one hour at room temperature. Strepavidin coated polystyrene beads {40 μl of 0.1% (w/v)} are added and the plate is incubated in the dark for an additional half hour. The labeled cleavage product is separated from the unreacted substrate via filtration and is read on the Idexx screen machine. The data are analyzed by appropriate computer algorithms to ascertain percent inhibition values.

The mark [1] stands for this setting: read-out: HIV-1 Protease % Inhib, dose 10.000 uM.
Where [2] appears, read: read-out: HIV-1 Protease % Inhib, dose 100.000 uM.
Setting [3] is: dose 1.000 uM, read-out: HIV-1 Protease % Inhib.
Where [4] appears, read: dose 10.000 uM, read-out: HIV-1 Protease % Inhib.
[5] abbreviates: dose 100.000 uM, read-out: HIV-1 Protease % Inhib.
Setting [6] is: read-out: HIV-1 Protease % Inhib, dose 1.000 uM.

On to `O=c1oc2ccccc2c(O)c1CCc1ccccc1` [Example 1, 4-Hydroxy-3-phenethylcoumarin], for which the inhibition at 20 µM turned out to be 51.6% and the inhibition at 200 µM turned out to be 92.8%. Also, the inhibition at 10 µM under setting [1] is 15.3%. Also, the inhibition at 100 µM under setting [2] worked out at 66.9%.

In the case of `O=c1oc2ccccc2c(O)c1CCCc1ccccc1` [Example 2, 4-Hydroxy-3-(3-phenylpropyl)coumarin], the inhibition at 20 µM worked out at 48.1% and the inhibition at 200 µM came to 97.5%. The inhibition at 10 µM under setting [1] was 15.6%. Moreover, the inhibition at 100 µM under setting [2] was 63.6%.

In the case of `O=c1oc2ccccc2c(O)c1Cc1ccc2ccccc2c1` [Example 3, 4-Hydroxy-3-(2-naphthylmethyl)coumarin], under setting [3], the inhibition at 1 µM is under 10%. For the same compound, the inhibition at 10 µM under setting [4] was under 10%. In addition, the inhibition at 100 µM under setting [5] is 48.8%.

As for `O=c1oc2ccccc2c(O)c1CC(c1ccccc1)c1ccccc1` [Example 4, 4-Hydroxy-3-(2,2-diphenylethyl)-coumarin], the inhibition at 1 µM under setting [6] is under 10%. The inhibition at 10 µM under setting [1] came out at 12.4%. Further, under setting [2], the inhibition at 100 µM is 45.3%.

Turning to `CC(Cc1c(O)c2ccccc2oc1=O)c1ccccc1` (stereo not drawn) [Example 5, 4-Hydroxy-3-(2-phenylpropyl)coumarin], the inhibition at 1 µM under setting [6] worked out at 15.4%. Under setting [1], the inhibition at 10 µM was determined as 55.4%. In addition, under setting [2], the inhibition at 100 µM was found to be 95%.

`CC(c1ccccc1)c1c(O)c2ccccc2oc1=O` (stereo not drawn) [Example 6, 4-Hydroxy-3-(α-methylbenzyl)-coumarin]: the inhibition at 20 µM was determined as 65.6% and the inhibition at 200 µM is 75.2%. Besides, under setting [1], the inhibition at 10 µM is 29.2%. The inhibition at 100 µM under setting [2] was 88.5%.

Take `O=c1oc2ccccc2c(O)c1C(c1ccccc1)c1ccccc1` [Example 7, 4-Hydroxy-3-diphenylmethylcoumarin]: the pIC50 was 4.67. Besides, under setting [6], the inhibition at 1 µM was under 10%. The inhibition at 10 µM under setting [1] came out at 42.5%. Under setting [2], the inhibition at 100 µM turned out to be 96.3%.

In turn, `CC(O)CC(c1ccccc1)c1c(O)c2ccccc2oc1=O` (stereo not drawn) [Example 8, 4-Hydroxy-3-(3-hydroxy-1-phenylbutyl)-coumarin] gave a pIC50 of 4.38. Under setting [6], the inhibition at 1 µM is under 10%. For the same compound, the inhibition at 10 µM under setting [1] was 23.7%. In addition, the inhibition at 100 µM under setting [2] was 93.3%.

For `CC(C)C(c1ccccc1)c1c(O)c2ccccc2oc1=O` (stereo not drawn) [Example 9, 4-Hydroxy-3-(2-methyl-1-phenylpropyl)-coumarin], the pIC50 is 4.98. For the same compound, the inhibition at 1 µM under setting [6] is 12.1%. Also, the inhibition at 10 µM under setting [1] came out at 65%. Under setting [2], the inhibition at 100 µM is 98.3%.

Take `CC(C)C(c1ccc(Br)cc1)c1c(O)c2ccccc2oc1=O` (stereo not drawn) [Example 12, 3-(1-(4-Bromophenyl)-2-methylpropyl)-4-hydroxycoumarin]: the pIC50 is 4.92 and the inhibition at 200 µM came to 87%. Moreover, the inhibition at 0.098 µM (read-out: HIV-1 Protease % Inhib, dose 0.098 uM) is under 10%. For the same compound, under “read-out: HIV-1 Protease % Inhib, dose 0.196 uM”, the inhibition at 0.196 µM is under 10%. Moreover, the inhibition at 0.39 µM (read-out: HIV-1 Protease % Inhib, dose 0.390 uM) was under 10%. Moreover, the inhibition at 0.78 µM (read-out: HIV-1 Protease % Inhib, dose 0.780 uM) is 14%. The inhibition at 1.56 µM (read-out: HIV-1 Protease % Inhib, dose 1.560 uM) turned out to be 17.1%. For the same compound, the inhibition at 3.13 µM (read-out: HIV-1 Protease % Inhib, dose 3.130 uM) was 25.4%. Moreover, under “read-out: HIV-1 Protease % Inhib, dose 6.250 uM”, the inhibition at 6.25 µM worked out at 31.9%. Further, where the note is “read-out: HIV-1 Protease % Inhib, dose 12.500 uM”, the inhibition at 12.5 µM is 53.8%. Also, where the note is “read-out: HIV-1 Protease % Inhib, dose 25.000 uM”, the inhibition at 25 µM stood at 66.5%. Further, the inhibition at 50 µM (read-out: HIV-1 Protease % Inhib, dose 50.000 uM) turned out to be 74.7%. The inhibition at 100 µM under setting [2] turned out to be 87.4%.

Consider `O=c1oc2ccccc2c(O)c1C(Cc1ccccc1)c1ccccc1` (stereo not drawn) [Example 13, 3-(1,2-Diphenylethyl)4-hydroxycoumarin], for which the inhibition at 1 µM under setting [6] was under 10%. Further, the inhibition at 10 µM under setting [1] came to 34.7%. For the same compound, the inhibition at 100 µM under setting [2] came out at 74.6%.

Turning to `CC(C)CC(c1ccccc1)c1c(O)c2ccccc2oc1=O` (stereo not drawn) [Example 14, 4-Hydroxy-3-(3-methyl-1-phenylbutyl)-coumarin], under setting [6], the inhibition at 1 µM is 32.2%. In addition, the inhibition at 10 µM under setting [1] stood at 64.6%. Also, under setting [2], the inhibition at 100 µM was 87.1%.

As for `O=c1oc2ccccc2c(O)c1C(c1ccccc1)C1CC1` (stereo not drawn) [Example 15, 3-(Cyclopropylphenylmethyl)-4-hydroxycoumarin], the pIC50 was 5.90. In addition, the inhibition at 1 µM under setting [6] was 43.8%. The inhibition at 10 µM under setting [1] was found to be 89.6%.

Regarding `O=c1oc2ccccc2c(O)c1C(CCc1ccccc1)c1ccccc1` (stereo not drawn) [Example 16, 4-Hydroxy-3-(1,3-diphenylpropyl)-coumarin], under setting [6], the inhibition at 1 µM was under 10%. Further, the inhibition at 10 µM under setting [1] is 48.3%.

`O=c1oc2ccccc2c(O)c1C(CC1CCCCC1)c1ccccc1` (stereo not drawn) [Example 17, 3-(2-Cyclohexyl-1-phenylethyl)-4-hydroxycoumarin]: the inhibition at 1 µM under setting [6] is under 10%. Moreover, under setting [1], the inhibition at 10 µM was determined as 27.6%.

Consider `CCCC(c1ccc(C)cc1)c1c(O)c2ccccc2oc1=O` (stereo not drawn) [Example 18, 4-Hydroxy-3-(1-(4-methylphenyl)-butyl)-coumarin], for which, under setting [6], the inhibition at 1 µM was 13.4%. Under setting [1], the inhibition at 10 µM amounted to 52.5%.

As for `CCCC(c1ccc(CC)cc1)c1c(O)c2ccccc2oc1=O` (stereo not drawn) [Example 19, 3-(1-(4-Ethylphenyl)-butyl)-4-hydroxycoumarin], under setting [6], the inhibition at 1 µM is under 10%. The inhibition at 10 µM under setting [1] was 36.8%.

`CCC(c1c(O)c2ccccc2oc1=O)c1cccc2ccccc12` (stereo not drawn) [Example 20, 4-Hydroxy-3-(1-(1-naphthyl)-propyl)-coumarin]: the inhibition at 1 µM under setting [6] is under 10%. Besides, under setting [1], the inhibition at 10 µM stood at 20.3%. Besides, the inhibition at 100 µM under setting [2] came to 79.8%.

As for `O=c1oc2ccccc2c(O)c1C(=Cc1ccccc1)c1ccccc1` [Example 21, 3-(1,2-Diphenylethenyl)4-hydroxycoumarin], the inhibition at 1 µM under setting [3] was under 10%. Also, the inhibition at 10 µM under setting [4] worked out at 12.1%. For the same compound, the inhibition at 100 µM under setting [5] turned out to be 74.3%.

Take `CC(c1cccc(C(=O)NCC(=O)OC(C)(C)C)c1)c1c(O)c2ccccc2oc1=O` (stereo not drawn) [Example 22, 4-Hydroxy-3-[1-[3-[[[(1,1-dimethylethoxycarbonyl)methyl]amino]carbonyl]phenyl]ethyl]-coumarin]: the inhibition at 1 µM under setting [6] was under 10%. Also, the inhibition at 10 µM under setting [1] was under 10%. The inhibition at 100 µM under setting [2] came out at 58.7%.

In the case of `CCC(c1cccc(NC(=O)CCNC(=O)OC(C)(C)C)c1)c1c(O)c2ccccc2oc1=O` (stereo not drawn) [Example 23, 4-Hydroxy-3-[1-[3-[[3-[(1,1-dimethylethoxycarbonyl)amino]-1-oxopropyl]amino]phenyl]propyl]-coumarin], the negative logarithm of the IC50 (pIC50) was 6.18 and 6.15. Further, where the note is “dose 100.000 uM”, the “HIV-1 Protease % Inhib” value is 104.2%. In addition, the inhibition at 1 µM under setting [6] came out at 46.6%. Besides, under setting [1], the inhibition at 10 µM was 96.6%. Moreover, the inhibition at 100 µM under setting [2] was 104%.

Turning to `CCC(c1cccc(NC(=O)CCN)c1)c1c(O)c2ccccc2oc1=O` (stereo not drawn) [Example 24, 3-[1-[3-[(3-Amino-1-oxopropyl)amino]phenyl]propyl]-4-hydroxy-coumarin, trifluoroacetate (salt)], under setting [6], the inhibition at 1 µM is under 10%. The inhibition at 10 µM under setting [1] was 24.2%. The inhibition at 100 µM under setting [2] was 83.7%.

`CCC(c1cccc(NC(=O)CCc2ccccc2)c1)c1c(O)c2ccccc2oc1=O` (stereo not drawn) [Example 25, 4-Hydroxy-3-[1-[3-[(1-oxo-3-phenylpropyl)amino]phenyl]propyl]-coumarin] had a negative logarithm of the IC50 (pIC50) of 5.28. The inhibition at 1 µM under setting [6] worked out at 11.4%. The inhibition at 10 µM under setting [1] worked out at 78.6%. Besides, under setting [2], the inhibition at 100 µM was 115%.

As a reminder, the pIC50 is −log10 of the IC50, conventionally taken in molar units.
